Read-outs that look alike come from different tables or passages of the source.
Key:
[1] = test system: CUL4A^low T47D breast cancer cells; assay: Cell killing in CUL4-low T47D cells (CellTiter Glo); format: cell-based; settings: Homo sapiens, 192 h, 8 days treatment
Procedure: EC50 indicates compound concentration can cause 50% cell killing in CUL4° ^w T47D cells (see Table 1, column 7). CUL4A^low T47D breast cancer cells were seeded in 96 well plate. […] Change fresh medium and compounds every 48 hours. After 8 days treatment, cell viability was examined by using CellTiter Glo kit (Promega #7570) following the manufacturer's guidelines (https://www.promega.com/-/media/files/resources/protocols/technical-bulletins/0/celltiter-glo-luminescent-cell-viability-assay-protocol.pdf?rev=0d95c232094b41daa06d0c110d1d916f&sc_lang=en, hereby incorporated by reference in its entirety for all purposes). EC50 concentration was calculated by Prism 8 XY analysis nonlinear regression (curve fit-Log(inhibitor) vs response). EC50 indicates cell killing potential in CUL4 low T47D cell line and the EC50 difference between CUL4^high and CUL4^low cells indicates the small molecule cause specific cell killing.
CUL4A^high MDA-MB-468, CUL4^low (T47D), and MCF7 breast cancer cells were seeded in 96 well plates separately. […] Replace with fresh medium and compounds every 48 hours. After 8 days treatment, cell viability was examined by CellTiter Glo kit (Promega #7570). First, transfer the appropriate volume (10 ml for Cat. #G7570) of CellTiter-Glo® Buffer into the amber bottle containing CellTiter-Glo® Substrate to reconstitute the lyophilized enzyme/substrate mixture. This forms the CellTiter-Glo® Reagent. Second, add CellTiter-Glo® Reagent in an equal volume (100 μl per well for 96-well plates) to all wells. Mix contents for 2 minutes on an orbital shaker to induce cell lysis. Incubate at room temperature for 15 minutes to stabilize luminescent signal. Then record luminescence. EC50 concentration was calculated by Prism 8 XY analysis nonlinear regression (curve fit-Log(inhibitor) vs response).

DDB1-BPB [2] = molecular target: T1, DDB1-BPB (Homo sapiens (Human), UniProt Q16531); assay: Microscale Thermophoresis (MST) binding to DDB1-BPB; settings: labeled DDB1-BPB, 25° C.
T1 sequence (Q16531 403-706): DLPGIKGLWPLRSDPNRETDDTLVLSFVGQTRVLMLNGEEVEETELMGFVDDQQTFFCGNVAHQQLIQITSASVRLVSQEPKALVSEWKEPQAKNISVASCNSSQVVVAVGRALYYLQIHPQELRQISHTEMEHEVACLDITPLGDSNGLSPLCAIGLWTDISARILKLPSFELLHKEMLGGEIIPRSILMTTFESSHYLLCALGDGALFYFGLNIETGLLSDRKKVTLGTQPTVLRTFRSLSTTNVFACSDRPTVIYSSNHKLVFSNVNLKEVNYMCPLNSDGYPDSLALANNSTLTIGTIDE
Procedure: Kd represents dissociation constant, which measures the affinity of small molecule binding to the scaffold DDB1-BPB by Microscale Thermophoresis (MST) (see Table 1, column 9). MST experiments were performed on a Monolith NT 115 system (Nano Temper Technologies, Munich, Germany) using 100% LED and 60% IR-laser power (https://physiology.case.edu/media/eq manuals/eq_manual_nano-temper_mst_starting_guide.pdf, hereby incorporated by reference in its entirety for all purposes). The labeling of DDB1-BPB ([…]) was performed in labeling buffer with NHS-Red reactive dye (30 μM) (Nanotemper), which reacts efficiently with the primary amines of the proteins to form a stable dye protein conjugates. The labeling reaction was carried out at RT. A 16-point serial dilution (1:1) was prepared for compound at the final concentration ranged from 200 µM to 3 nM in PBS containing 0.05% tween. The samples were filled into Premium capillaries and measurements were conducted at 25° C. An equation implemented by the software MO-S002 MO Affinity Analysis, provided by the manufacturer, was used for fitting normalized fluorescence values at different concentrations of ligands.

MCF7 breast cancer cells = assay: Cell killing in MCF7 cells (CellTiter Glo); format: cell-based; settings: Homo sapiens, MCF7, 192 h; Table 3, 0 to 20 μM compound, 8 days treatment
Procedure: CUL4A^high MDA-MB-468, CUL4^low (T47D), and MCF7 breast cancer cells were seeded in 96 well plates separately. Cells were treated with DMSO, or from 0 to 20 μM compound respectively. Replace with fresh medium and compounds every 48 hours. After 8 days treatment, cell viability was examined by CellTiter Glo kit (Promega #7570). First, transfer the appropriate volume (10 ml for Cat. #G7570) of CellTiter-Glo® Buffer into the amber bottle containing CellTiter-Glo® Substrate to reconstitute the lyophilized enzyme/substrate mixture. This forms the CellTiter-Glo® Reagent. Second, add CellTiter-Glo® Reagent in an equal volume (100 μl per well for 96-well plates) to all wells. Mix contents for 2 minutes on an orbital shaker to induce cell lysis. Incubate at room temperature for 15 minutes to stabilize luminescent signal. Then record luminescence. EC50 concentration was calculated by Prism 8 XY analysis nonlinear regression (curve fit-Log(inhibitor) vs response).

[3] = test system: CUL4A^high MDA-MB-468 breast cancer cells; assay: Cell killing in CUL4-high MDA-MB-468 cells (CellTiter Glo); format: cell-based; settings: Homo sapiens, 8 days treatment
Summary of the method: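 Cells seeded, treated after 24 h with DMSO or compound (0 to 20 μM). Medium and compound replaced every 48 h over 8 days. Viability measured by CellTiter-Glo luminescence; EC50 (50% killing) from log(inhibitor) vs response nonlinear fit.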

[4] = molecular target: CUL4A-DDB1-BPB interaction (Homo sapiens (Human), UniProt Q16531); assay: AlphaLISA in vitro binding assay, CUL4A and DDB1-BPB binding; settings: inhibition of CUL4A and DDB1-BPB binding
Chain of CUL4A-DDB1-BPB interaction (Q16531 403-706): as above
Summary of the method: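 Compound disruption of CUL4A binding to DDB1-BPB measured by AlphaLISA/AlphaScreen bead proximity in 384-well format. IC50 from nonlinear log(inhibitor)-vs-response curve fit.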

[5] = Dynamic light scattering (DLS) solubility assay; format: physicochemical; settings: normalized intensity ratio of 25 μM compound vs DMSO, in PBS
Summary of the method: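 Compounds diluted from DMSO into PBS at final concentrations of 200 μM to 0.78 μM, in triplicate, and aggregation measured by light scattering intensity. A ratio above 2 scores insoluble (−), below 2 soluble (+), and around 2 (+/−).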

[6] = test system: UV-induced CUL4-dependent DDB2 degradation in MEF-F-DDB2 cells; assay: Cell-based assay for inhibition of UV-induced CUL4-dependent DDB2 degradation; design: key: (+) means that the normalized DDB2/α-tubulin ratio is higher in the compound treated sample than DMSO treated sample; (−) means that no change happens between compound treated sample with control sample; settings: DDB2/α-tubulin by Western blot
Summary of the method: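 MEF cells expressing Flag-DDB2, in serum-free medium, treated with DMSO or compound, UV-irradiated (254 nm, 0.2 W/m^2), then harvested. Flag-DDB2 measured by western blot against α-tubulin; (+) denotes normalized DDB2/α-tubulin above DMSO, (−) no change.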

DDB1-BPB [7] = molecular target: T1, DDB1-BPB; assay: Surface Plasmon Resonance (SPR) binding to DDB1-BPB; settings: DDB1-BPB immobilized
Description: Kd represents dissociation constant, which measures the affinity of small molecule binding to the scaffold DDB1-BPB by Surface Plasmon Resonance (SPR) (https://www.bio-rad.com/webroot/web/pdf/lsr/literature/Bulletin_6414.pdf, hereby incorporated by reference in its entirety) (see Table 1, column 8). To assess the interaction between DDB1-BPB and compounds, a multi-parametric SPR instrument (BioRad ProteON XPR360) was used. DDB1-BPB was immobilized onto the GLH sensor surface in a variety of ways as follows: flow channels were activated in parallel with 1/20 diluted EDC/SNHS. DDB1-BPB was diluted to 0.1 mg/mL in sodium acetate pH 4.5 and directly coupled onto channel for 4 min. Excess reactive esters were blocked with a 5-min injection of 1 M ethanolamine. Mean immobilization levels were 17,000 RU with <2% variation along a strip. One channel was left unmodified to provide an additional reference surface. Next, the binding kinetics of compounds on surfaces was determined in a single injection using a “one-shot” kinetic mode. Typically, compound was prepared as a twofold serial dilution (0, 3.125, 6.25, 12.5, 25, 50 μM) and injected for 60 s at […]. Dissociation was monitored for 800 s. Surfaces were regenerated with multiple 30-s pulses of 60 mM phosphoric acid so that the experiment could be reproduced. All resulting sensor grams were collected and analyzed using the ProteOn manager software.

[8] = T47D cells, read-out: EC50 CUL4-Low Cells (cell killing)
[9] = 192 h, MDA-MB-468 cells, read-out: EC50 CUL4-High Cells (cell killing)

Kd (DDB1-BPB [2]) [µM]	IC50 [4] [µM]	Solubility (DLS Assay) [5]	Kd (DDB1-BPB [7]) [µM]	Kd (SPR) (DDB1-BPB [7])	AlphaLisa IC50 [4]	Kd (MST) (DDB1-BPB [2])	SMILES	EC50 [1, 8] [µM]	EC50 ([1]; T47D, Table 3, 0 to 20 μM compound, read-out: EC50 OF cell killing, T47D) [µM]	EC50 (MCF7 breast cancer cells) [µM]	EC50 [3, 9] [µM]	EC50 ([3]; MDA-MB-468, 192 h, Table 3, 0 to 20 μM compound, read-out: EC50 OF cell killing, MDA-MB-468) [µM]	Degradation Inhibition (inhibition of UV-induced DDB2 degradation) [6]
0.72	0.53						CN(c1ccc(-c2nc(C(=O)O)cc3c2[nH]c2cc(F)ccc23)cc1)S(=O)(=O)c1ccccc1 [PA1-3, 7-fluoro-1-(4-(N-methylphenylsulfonamido)phenyl)-9H-pyrido[3,4-b]indole-3-carboxylic acid]	3.42	3.42	3.36	0.48	0.49	
25.5	0.47	-(insoluble)					CN(c1ccc(-c2nc(C(=O)O)cc3c2[nH]c2ccc(F)cc23)cc1)S(=O)(=O)c1cccnc1 [PA2-6, 6-fluoro-1-(4-(N-methylpyridine-3-sulfonamido)phenyl)-9H-pyrido[3,4-b]indole-3-carboxylic acid]	> 100			22.3		−
	1.06 ± 0.51		5.58				CS(=O)(=O)c1ccc(-c2nc(C(=O)O)cc3c2[nH]c2ccccc23)cc1 [PA35, 1-(4-methylsulfonylphenyl)-9H-pyrido[3,4-b]indole-3-carboxylic acid]	> 100			> 100		
		-(insoluble)		no binding	Neg		COC(=O)c1cccc(-c2nc(C(=O)OC(C)(C)C)cc3c2[nH]c2ccccc23)c1 [PA43]	48.2			28.3		
	2.33 ± 0.86		13.2			Insoluble	O=C(O)c1cc2c([nH]c3ccccc32)c(-c2ccc(NCc3ccc(F)cc3)cc2)n1 [PA68, 1-[4-[(4-fluorophenyl)methylamino]phenyl]-9H-pyrido[3,4-b]indole-3-carboxylic acid]	11			9.12		
	0.78 ± 0.02	+/−	4.57				Cc1ccc2[nH]c3c(-c4ccc(S(C)(=O)=O)cc4)nc(C(=O)O)cc3c2c1 [PA72]						−
	0.73 ± 0.35	+/−	7.34				CS(=O)(=O)c1ccc(-c2nc(C(=O)O)cc3c2[nH]c2ccc(O)cc23)cc1 [PA73]	> 100			> 100		
	1.52 ± 1.13		4.54				CS(=O)(=O)N(Cc1ccccc1)c1ccc(-c2nc(C(=O)O)cc3c2[nH]c2ccccc23)cc1 [PA76, 1-[4-[benzyl(methylsulfonyl)amino]phenyl]-9H-pyrido[3,4-b]indole-3-carboxylic acid]	> 100			28.9		+
321		-(insoluble)			Neg		COC(=O)c1cc2c([nH]c3cccc(F)c32)c(-c2ccc(N(C)S(=O)(=O)c3ccccc3)cc2)n1 [PA99-1, methyl 5-fluoro-1-(4-(N-methylphenylsulfonamido)phenyl)-9H-pyrido[3,4-b]indole-3-carboxylate]	> 100			3.47		+
257	17.4 ± 7.42	-(insoluble)					CN(c1ccc(-c2nc(C(=O)O)cc3c2[nH]c2cc(-c4ccccc4)ccc23)cc1)S(=O)(=O)c1ccccc1 [PA115, 1-[4-[benzenesulfonyl(methyl)amino]phenyl]-7-phenyl-9H-pyrido[3,4-b]indole-3-carboxylic acid]	3.86			2.15		

Source: patent publication US20250188078A1, “SMALL MOLECULE INHIBITORS OF THE CRL4 UBIQUITIN LIGASE” (Cornell University, priority 2022, published 2025)
